Test results reported in ChEMBL document CHEMBL3045421, “5-Nitro-heteroarylidene analogs of 2-thiazolylimino-4-thiazolidinones as a novel series of antibacterial agents” (2013).
In brackets after ≈: the same amount, converted by molar mass.

Experiments:
Format in all cases: functional
[1] = test system: Helicobacter pylori; experiment: Antibacterial activity against Helicobacter pylori strain 3 assessed as diameter of growth inhibition zone at 8 ug/disk after 3-5 days by filter paper disk diffusion method; conditions: read-out: DIZ
[2] = test system: Klebsiella pneumoniae; experiment: microbe, parasite or virus in culture; conditions: ATCC 10031, 24 h
Description: Antibacterial activity against Klebsiella pneumoniae ATCC 10031 assessed as growth inhibition after 24 hr by microdilution method

[3] = test system: Staphylococcus aureus; experiment: microbe, parasite or virus in culture; conditions: ATCC 6538p, 24 h
Description: Antibacterial activity against Staphylococcus aureus ATCC 6538p assessed as growth inhibition after 24 hr by microdilution method

[4] = test system: Helicobacter pylori; experiment: Antibacterial activity against Helicobacter pylori strain 3 assessed as diameter of growth inhibition zone at 16 ug/disk after 3-5 days by filter paper disk diffusion method; conditions: read-out: DIZ
[5] = test system: Helicobacter pylori; experiment: Antibacterial activity against Helicobacter pylori strain 2 assessed as diameter of growth inhibition zone at 16 ug/disk after 3-5 days by filter paper disk diffusion method; conditions: read-out: DIZ
[6] = test system: Helicobacter pylori; experiment: Antibacterial activity against Helicobacter pylori strain 1 assessed as diameter of growth inhibition zone at 16 ug/disk after 3-5 days by filter paper disk diffusion method; conditions: read-out: DIZ
[7] = test system: Escherichia coli; experiment: microbe, parasite or virus in culture; conditions: ATCC 8739, 24 h
Description: Antibacterial activity against Escherichia coli ATCC 8739 assessed as growth inhibition after 24 hr by microdilution method

[8] = test system: Helicobacter pylori; experiment: Antibacterial activity against Helicobacter pylori strain 2 assessed as diameter of growth inhibition zone at 32 ug/disk after 3-5 days by filter paper disk diffusion method; conditions: read-out: DIZ
[9] = test system: Helicobacter pylori; experiment: Antibacterial activity against Helicobacter pylori strain 1 assessed as diameter of growth inhibition zone at 8 ug/disk after 3-5 days by filter paper disk diffusion method; conditions: read-out: DIZ
[10] = test system: Helicobacter pylori; experiment: Antibacterial activity against Helicobacter pylori strain 2 assessed as diameter of growth inhibition zone at 8 ug/disk after 3-5 days by filter paper disk diffusion method; conditions: read-out: DIZ
[11] = test system: Pseudomonas aeruginosa; experiment: microbe, parasite or virus in culture; conditions: ATCC 9027, 24 h
Description: Antibacterial activity against Pseudomonas aeruginosa ATCC 9027 assessed as growth inhibition after 24 hr by microdilution method

[12] = test system: Helicobacter pylori; experiment: Antibacterial activity against Helicobacter pylori strain 3 assessed as diameter of growth inhibition zone at 64 ug/disk after 3-5 days by filter paper disk diffusion method; conditions: read-out: DIZ
[13] = test system: Staphylococcus epidermidis; experiment: microbe, parasite or virus in culture; conditions: ATCC 12228, 24 h
Description: Antibacterial activity against Staphylococcus epidermidis ATCC 12228 assessed as growth inhibition after 24 hr by microdilution method

[14] = test system: Bacillus subtilis; experiment: microbe, parasite or virus in culture; conditions: ATCC 6633, 24 h
Description: Antibacterial activity against Bacillus subtilis ATCC 6633 assessed as growth inhibition after 24 hr by microdilution method

[15] = test system: Helicobacter pylori; experiment: Antibacterial activity against Helicobacter pylori strain 1 assessed as diameter of growth inhibition zone at 32 ug/disk after 3-5 days by filter paper disk diffusion method; conditions: read-out: DIZ
[16] = test system: Helicobacter pylori; experiment: Antibacterial activity against Helicobacter pylori strain 1 assessed as diameter of growth inhibition zone at 64 ug/disk after 3-5 days by filter paper disk diffusion method; conditions: read-out: DIZ
[17] = test system: Helicobacter pylori; experiment: Antibacterial activity against Helicobacter pylori strain 2 assessed as diameter of growth inhibition zone at 64 ug/disk after 3-5 days by filter paper disk diffusion method; conditions: read-out: DIZ
[18] = test system: Helicobacter pylori; experiment: Antibacterial activity against Helicobacter pylori strain 3 assessed as diameter of growth inhibition zone at 32 ug/disk after 3-5 days by filter paper disk diffusion method; conditions: read-out: DIZ

MIC [2]: 1.56 µg/mL (≈ 4.84 µM)
MIC [3]: 0.97 µg/mL (≈ 3.01 µM)
MIC [7]: 1.56 µg/mL (≈ 4.84 µM)
MIC [11]: 0.39 µg/mL (≈ 1.21 µM)
MIC [13]: 0.006 µg/mL (≈ 0.0186 µM)
MIC [14]: 0.19 µg/mL (≈ 0.589 µM)
SMILES: O=C1N/C(=N\c2nccs2)S/C1=C\c1ccc([N+](=O)[O-])o1
zone of inhibition at 8 µg/disc [1]: > 50 mm
zone of inhibition at 16 µg/disc [4]: > 50 mm
zone of inhibition at 16 µg/disc [5]: > 50 mm
zone of inhibition at 16 µg/disc [6]: > 50 mm
zone of inhibition at 32 µg/disc [8]: > 50 mm
zone of inhibition at 8 µg/disc [9]: > 50 mm
zone of inhibition at 8 µg/disc [10]: > 50 mm
zone of inhibition at 64 µg/disc [12]: > 50 mm
zone of inhibition at 32 µg/disc [15]: > 50 mm
zone of inhibition at 64 µg/disc [16]: > 50 mm
zone of inhibition at 64 µg/disc [17]: > 50 mm
zone of inhibition at 32 µg/disc [18]: > 50 mm
